The test system of series [1] is mice. The series can be described thus: Acute hypercalcemia induced by PTHrP-(1-34) challenge, antagonist given SC, blood ionized calcium. The series is classed as in vivo. The note with it: 0.5 mg/kg SC, vehicle-treated mice. The method, then:
Normal male mice were injected SC with vehicle (PBS, circles) or with human PTHrP-(1-34) at 0.5 mg/kg (squares). PTHrP-challenged mice were then immediately injected SC with [Asn10,Leu11]PTHrP-(7-34)-Fc at 10 mg/kg (triangles) or 30 mg/kg (diamonds). Data represent group means, with an n of 6 mice/group.
We have cloned, expressed and purified [Asn10,Leu11]PTHrP-(7-34)-Fc. We tested the ability of this compound to antagonize both acute and chronic hypercalcemia responses in mice. PTHrP-(1-34) was used as a calcemic agent to evaluate the acute effects of [Asn10,Leu11]PTHrP-(7-34)-Fc. Because PTHrP is the principal mediator of HHM, this study also represents a model for hypercalcemia-inducing tumors. Briefly, blood ionized calcium (BIC) was measured at baseline, and mice were then challenged with vehicle (PBS) or with PTHrP-(1-34) (0.5 mg/kg) by SC injection. Mice were then treated once SC with varying doses of [Asn10,Leu11]PTHrP-(7-34)-Fc, or with vehicle (PBS). In vehicle-treated mice challenged with PTHrP-(1-34), a transient hypercalcemic response was observed. The peak calcemic response occurred at 3 h post challenge, and persisted until at least 6 h post challenge.

In series [2] the test system is aged ovariectomized (OVX) rats. The series can be described thus: Monotherapy in aged ovariectomized (OVX) rats: twice-weekly treatment, BMD by DEXA and serum calcium. The series is classed as in vivo. The method, then: Eleven months after OVX, rats were treated twice per week with phosphate-buffered saline (PBS, vehicle) or with APD (0.5 mg/kg) or with PTH-(1-34)-Fc (50 nmol/kg). DEXA was performed weekly. Blood was drawn 24 hours after the second weekly injection, when the calcemic effects of PTH-Fc are typically maximal. The effects of PTH-Fc administration on lumbar BMD (FIG. 11A), tibia/femur BMD (FIG. 11B), femoral metaphysis BMD (FIG. 11C), and serum calcium (FIG. 11D) were determined.
Sprague Dawley rats were OVX'd at 3 months of age and allowed to lose bone for 11 months. Other rats were sham-operated and treated twice per week with vehicle (PBS). OVX rats were treated twice per week with SC injections of either vehicle or the bisphosphonate APD (pamidronate, 0.5 mg/kg), or with PTH-(1-34)-Fc (50 nmol/kg) or with APD+PTH-(1-34)-Fc. BMD was determined weekly via dual energy X-ray absorptiometry (DEXA). Rats were sacrificed after 4 weeks of treatment. At the start of treatment, OVX rats had significant reductions in BMD at all skeletal sites analyzed, compared to vehicle-treated […] (FIG. 11, p<0.05, 2-way ANOVA).

In series [3] the test system is mice. The experiment in a line: Mouse bioassay: SC injection days 0, 5, 10; clinical chemistry (calcium, AP, TRAP) and tibial pQCT. The series is classed as in vivo. The settings on record: for serum TRAP (osteoclast marker) / calcemic potency among the 3 Fc peptides: mice; for serum TRAP (osteoclast marker): after single SC injection; for calcemic potency among the 3 Fc peptides: serum calcium. The method, then:
Peripheral blood was obtained daily for 3 days following single subcutaneous injections of the indicated compounds.
Peripheral quantitative computed tomography (pQCT) was performed on the proximal tibial metaphysis of mice on day 15, after injections of PTH constructs on day 0, 5 and 10.
We then tested the effects of PTH-(1-34), PTH-(1-34)-Fc, PTH-(1-31)-Fc and PTH-(1-30)-Fc in mice. Four week old male mice were injected on days 0, 5, and 10 with vehicle or with PTH fragments, by SC injection. Peripheral blood was obtained for clinical chemistry at 24, 48, and 72 h. Mice were killed on day 15, vertebrae, tibiae and femurs were harvested for histology and one tibia was collected for bone density measurements (peripheral quantitative computed tomography, pQCT). Clinical chemistry endpoints included total serum calcium, serum alkaline phosphatase (AP, a marker of osteoblast activity), and serum tartrate-resistant acid phosphatase (TRAP, a marker of osteoclast activity). For each animal, the ratio of AP:TRAP was calculated as an index of relative osteoblast activity compared to osteoclast activity. A higher AP:TRAP ratio would indicate a potentially more anabolic agent.

For the next series, the system named is OVX rats. The settings on record: cited from earlier work.
The mark [4] stands for this setting: 100 nmoles/kg on day 0, 5, 10, pQCT day 15.

Consider five molecules from US6756480B2, “Modulators of receptors for parathyroid hormone and parathyroid hormone-related protein” (Amgen Inc., priority 2000, dated 2004).

Where two headings read alike, the source gives them in different places. No end group written: not given here.

On to human PTHrP(1-34) [PTHrP-(1-34)], for which, in the series with mice [1], the “persistence of calcemic response post challenge” value is reported as “at least 6 h” and the “time of peak calcemic response post challenge” value was 3 h.
In the case of `NCCC(O)(P(=O)(O)O)P(=O)(O)O` [APD, pamidronate, reference compound], in series [2] (0.5 mg/kg twice per week), the “BMD at any skeletal site compared to vehicle-treated OVX rats” value is “did not significantly increase BMD”. The “effect of co-administration on calcemic effect of PTH-(1-34)-Fc” value in series [2] (APD 0.5 mg/kg co-administered) is “completely blocked the calcemic effect”.
Consider “PTH-(1-30)-Fc: PTH (1-30), SVSEIQLMHNLGKHLNSMERVEWLRKKLQD, linked at its C-terminus to an Fc domain (SVSEIQLMHNLGKHLNSMERVEWLRKKLQD-{Fc domain})”, for which the serum calcium result in the series on mice [3] (100 nmoles/kg) is reported as “failed to significantly increase serum calcium”. Also, the “bone mineral density (proximal tibial metaphysis)” value (shortened to “bone mineral density”) in the series on mice [3] (setting [4]) was “greatest effect”. Further, in the series with mice [3] (1,000 nmoles/kg), the “serum AP (osteoblast marker)” value is recorded as “greatest elevation” and the “time of peak serum AP after injection” value came to 72 h. Moreover, the “bone mineral density” value in the series with mice [3] (1,000 nmoles/kg on day 0, 5, 10, pQCT day 15) was “least effect”. Besides, the BMD versus controls result with mice [3] (all doses (100-1,000 nmoles/kg), pQCT day 15) is reported as “greater than in controls”. Further, the “calculated AP:TRAP ratio” value in the series with mice [3] (high dose 1,000 nmoles/kg) was “greatest increase”. Further, in the series with mice [3], the “serum TRAP (osteoclast marker)” value is recorded as “not significantly changed” and the “calcemic potency among the 3 Fc peptides” value is listed as “least calcemic”. Moreover, in the series with mice [3] (pQCT day 15), the “increase in bone density compared with the other PTH constructs” value is given as “greatest increase in bone density”.
As for “human PTH(1-28) (SVSEIQLMHNLGKHLNSMERVEWLRKKL; listed as Homo sapiens) [PTH-(1-28)]”, the anabolic effect entry with OVX rats (200 μg/kg/day) is on record as “ineffective”; in the series on OVX rats (1,000 μg/kg/day), “anabolic”.
“PTH-(1-31)-Fc: PTH (1-31), SVSEIQLMHNLGKHLNSMERVEWLRKKLQDV, linked at its C-terminus to an Fc domain”: the “bone mineral density” value with mice [3] (setting [4]) is “no effect”. The “serum AP (osteoblast marker)” value in the series with mice [3] (300 nmoles/kg (given for PTH-(1-34)-Fc), 72 h) is “significantly elevated”. Besides, in the series with mice [3] (high dose 1,000 nmoles/kg), the “calculated AP:TRAP ratio” value is “decreased”. Also, in the series with mice [3] (higher doses 300-1,000 nmoles/kg), the toxicity entry is reported as “significant hypercalcemia-related toxicity”. Besides, in the series with mice [3] (low dose 100 nmoles/kg), the “calculated AP:TRAP ratio” value is reported as “increased”. Besides, in the series on mice [3], the “serum TRAP (osteoclast marker)” value is recorded as “dramatically increased” and the “calcemic potency among the 3 Fc peptides” value is “more potent calcemic agent”.
